Test results from patent US6620848B2, “Nitric oxide synthase inhibitors” (SmithKline Beecham Corporation, priority 1997, dated 2003).

Experiments:
iNOS = biological target: T1, iNOS (Rattus norvegicus, UniProt Q06518); assay: Inhibition of iNOS in situ in rat aortic rings (induced smooth muscle tone, LPS-exposed endothelium-denuded rings); type: cell-based; conditions: for IC50: endothelium-denuded, LPS 6 h, phenylephrine approx. ED90
T1 construct: endothelium-denuded rings were exposed to LPS; from tissue; host or cells: rat thoracic aorta rings, endothelium-denuded, LPS-exposed
Procedure: (§1) 1. Inhibition of eNOS and iNOS in Rat Aortic Rings
(§2) The inhibition of eNOS and iNOS in situ in rat aortic rings was assessed by measuring the increases in ring tension caused by NO synthase inhibition. For studies of basal tone (reflecting eNOS), rings of thoracic aorta with intact endothelium were prepared as described previously (Rees et al. (1989) Br. J. Pharmol. 96, 418-424) and cumulative concentration curves obtained for the inhibitors in the presence of a threshold concentration of phenylephrine (ED10≈10 nM). For studies of induced smooth muscle tone (reflecting iNOS), endothelium-denuded rings were exposed to LPS (0.1 μ/ml from S. typhosa) in the presence of phenylephrine at approximately ED90 for 6 h as described previously (Rees et al. (1990) Biochem. Biophys. Res. Commun. 173, 541-547). During this time a progressive loss of tone occurred because of iNOS induction. Cumulative concentration curves were then obtained for the inhibitors.

eNOS = biological target: T2, eNOS (Rattus norvegicus, UniProt Q62600); assay: Inhibition of eNOS in situ in rat aortic rings (basal tone, intact endothelium); type: cell-based; conditions: rat aortic rings with intact endothelium, threshold phenylephrine
T2 construct: from tissue; host or cells: rat thoracic aorta rings with intact endothelium
Procedure: as §1, §2

| selectivity iNOS vs eNOS (iNOS) | IC50 (iNOS) | eNOS % inhib @ 300 μM (eNOS) | Compound |
| --- | --- | --- | --- |
| >150 fold | 6.6 µM | 20% | CC(=N)NCCSCC[C@@H](N)C(=O)O [Example 3, (R)-[2-(1-iminoethylamino)ethyl]-D-homocysteine] |
| >500 fold | 0.45 µM | 53% | CC(=N)NCCSCCC(N)C(=O)O (racemic) [Example 2, (R/S)-[2-(1-iminoethylamino)ethyl]-D,L-homocysteine] |
